pIC50: −log10 of the molar value.
Target: USP7 (Homo sapiens, UniProt Q93009)
Assay: biochemical
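Further: fluorescence intensity readout of USP7 enzymatic activity, reaction incubated 90 min at room temperature.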

Chain of USP7 (Q93009 whole entry): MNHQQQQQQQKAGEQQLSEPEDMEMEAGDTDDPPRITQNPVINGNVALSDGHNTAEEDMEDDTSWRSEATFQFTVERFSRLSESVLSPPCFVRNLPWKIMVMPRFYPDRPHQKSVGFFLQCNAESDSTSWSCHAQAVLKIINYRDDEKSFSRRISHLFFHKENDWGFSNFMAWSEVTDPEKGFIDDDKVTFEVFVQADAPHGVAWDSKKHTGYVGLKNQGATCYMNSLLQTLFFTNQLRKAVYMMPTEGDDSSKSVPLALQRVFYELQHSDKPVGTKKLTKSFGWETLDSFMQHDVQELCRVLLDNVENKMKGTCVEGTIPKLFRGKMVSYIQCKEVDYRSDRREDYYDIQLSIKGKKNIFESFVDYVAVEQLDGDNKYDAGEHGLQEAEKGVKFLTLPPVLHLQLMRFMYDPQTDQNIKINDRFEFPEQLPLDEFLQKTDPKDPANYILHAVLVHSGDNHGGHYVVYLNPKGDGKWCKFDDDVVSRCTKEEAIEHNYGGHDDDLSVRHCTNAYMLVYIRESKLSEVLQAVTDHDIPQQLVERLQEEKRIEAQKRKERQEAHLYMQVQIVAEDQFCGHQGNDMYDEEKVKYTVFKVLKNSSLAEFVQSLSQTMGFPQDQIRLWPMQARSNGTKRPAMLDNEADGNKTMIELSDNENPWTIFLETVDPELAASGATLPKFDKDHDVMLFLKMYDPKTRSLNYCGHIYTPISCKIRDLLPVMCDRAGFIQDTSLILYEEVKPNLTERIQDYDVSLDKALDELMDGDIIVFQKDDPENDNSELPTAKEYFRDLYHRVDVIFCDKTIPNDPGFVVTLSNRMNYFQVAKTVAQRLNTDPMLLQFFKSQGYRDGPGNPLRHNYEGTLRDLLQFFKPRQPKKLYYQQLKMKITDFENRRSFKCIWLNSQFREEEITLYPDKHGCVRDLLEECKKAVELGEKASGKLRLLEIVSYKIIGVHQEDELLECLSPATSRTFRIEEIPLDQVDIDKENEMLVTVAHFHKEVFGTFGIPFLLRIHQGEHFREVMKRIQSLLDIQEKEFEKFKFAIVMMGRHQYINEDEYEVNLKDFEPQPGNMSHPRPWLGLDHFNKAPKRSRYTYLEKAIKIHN

Question: `C[C@]1(CO)C[C@H](N2CCCc3cc(C#N)cc(-c4ccnc5cc(CN6C(=O)C7CC7C6=O)sc45)c32)CN1` (stereo partly drawn) [Example 206, 8-(2-((2,4-dioxo-3-azabicyclo[3.1.0]hexan-3-yl)methyl)thieno[3,2-b]pyridin-7-yl)-1-((3S,5R)-5-(hydroxymethyl)-5-methylpyrrolidin-3-yl)-1,2,3,4-tetrahydroquinoline-6-carbonitrile] was tested. Which pIC50 did it give?
Answer: The pIC50 was greater than 8.00.

Question: With `O=C1OC[C@H](C(F)(F)F)N1Cc1cc2nccc(-c3cc(Cl)cc4c3N([C@@H]3CNC5(CCC5)C3)CCC4)c2s1` [Example 158, (R)-3-((7-(6-chloro-1-((S)-5-azaspiro[3.4]octan-7-yl)-1,2,3,4-tetrahydroquinolin-8-yl)thieno[3,2-b]pyridin-2-yl)methyl)-4-(trifluoromethyl)oxazolidin-2-one] as the molecule, how does the pIC50 read?
Answer: Its pIC50 is greater than 8.00.

Question: With `O=C1CCC(=O)N1Cc1cc2nccc(-c3cc(Cl)cc4c3N([C@H]3CNC[C@@H]3F)CCC4)c2s1` (single isomer, unassigned) [Example 96a] as the molecule, how does the pIC50 read?
Answer: Its pIC50 is greater than 8.00.

Question: `Cc1cnn(Cc2cc3nccc(-c4cc(Cl)cc5c4N([C@@H]4CNC6(CCC6)C4)C[C@H]4C[C@@H]54)c3s2)c(=O)c1` [Example 166, 2-((7-((1aS,7bR)-6-chloro-3-((S)-5-azaspiro[3.4]octan-7-yl)-1a,2,3,7b-tetrahydro-1H-cyclopropa[c]quinolin-4-yl)thieno[3,2-b]pyridin-2-yl)methyl)-5-methylpyridazin-3(2H)-one] was tested. Which pIC50 did it give?
Answer: The pIC50 was greater than 8.00.

Question: With `O=C1CN(C2CC(F)(F)C2)C(=O)N1Cc1cc2nccc(-c3cc(Cl)cc4c3N([C@@H]3CNC5(CCC5)C3)CCC4)c2s1` [Example 159, (S)-3-((7-(6-chloro-1-(5-azaspiro[3.4]octan-7-yl)-1,2,3,4-tetrahydroquinolin-8-yl)thieno[3,2-b]pyridin-2-yl)methyl)-1-(3,3-difluorocyclobutyl)imidazolidine-2,4-dione] as the molecule, how does the pIC50 read?
Answer: Its pIC50 is greater than 8.00.

Question: `C[C@]1(CO)C[C@H](N2C(=O)COc3cc(C#N)cc(-c4ccnc5cc(Cn6ncc(C7(C(F)(F)F)CC7)cc6=O)sc45)c32)CN1` [Example 226, 4-[(3S,5R)-5-(hydroxymethyl)-5-methyl-pyrrolidin-3-yl]-3-oxo-5-[2-[[6-oxo-4-[1-(trifluoromethyl)cyclopropyl]pyridazin-1-yl]methyl]thieno[3,2-b]pyridin-7-yl]-1,4-benzoxazine-7-carbonitrile] was tested. Which pIC50 did it give?
Answer: The pIC50 was greater than 8.00.

Question: With `O=c1ccn(C2CC(F)(F)C2)c(=O)n1Cc1cc2nccc(-c3cc(Cl)cc4c3N([C@@H]3CNC5(CCC5)C3)CCC4)c2s1` [Example 146, (S)-3-((7-(6-chloro-1-(5-azaspiro[3.4]octan-7-yl)-1,2,3,4-tetrahydroquinolin-8-yl)thieno[3,2-b]pyridin-2-yl)methyl)-1-(3,3-difluorocyclobutyl)pyrimidine-2,4(1H,3H)-dione] as the molecule, how does the pIC50 read?
Answer: The pIC50 was greater than 8.00.

Question: With `COC(=O)[C@@]1(C)C[C@@H](N2CCCc3cc(Cl)cc(-c4ccnc5cc(CN6C(=O)CCC6=O)sc45)c32)CN1` (single isomer, unassigned) [Example 201] as the molecule, how does the pIC50 read?
Answer: The pIC50 was 6.00 to 7.00.

Question: With `O=C1CCC(=O)N1Cc1cc2ncnc(-c3cc(Cl)cc4c3N([C@H]3CNC5(CCC5)C3)C[C@@H]3C[C@H]43)c2s1` [Example 167c, 1-((4-((1aR,7bS)-6-chloro-3-((R)-5-azaspiro[3.4]octan-7-yl)-1a,2,3,7b-tetrahydro-1H-cyclopropa[c]quinolin-4-yl)thieno[3,2-d]pyrimidin-6-yl)methyl)pyrrolidine-2,5-dione] as the molecule, how does the pIC50 read?
Answer: Its pIC50 is 7.00 to 8.00.

Question: With `O=C1c2ccccc2CN1Cc1cc2nccc(-c3cc(Cl)cc4c3N([C@H]3CCNC3)CCC4)c2s1` [Example 71, (S)-2-((7-(6-chloro-1-(pyrrolidin-3-yl)-1,2,3,4-tetrahydroquinolin-8-yl)thieno[3,2-b]pyridin-2-yl)methyl)isoindolin-1-one] as the molecule, how does the pIC50 read?
Answer: Its pIC50 is 6.00 to 7.00.

Question: `O=C1[C@@H]2[C@H]3CC[C@H](C3)[C@@H]2C(=O)N1Cc1cc2nccc(-c3cc(Cl)cc4c3N([C@@H]3CNC5(CCC5)C3)CCC4)c2s1` [Example 155, (3aR,4S,7R,7aS)-2-((7-(6-chloro-1-((S)-5-azaspiro[3.4]octan-7-yl)-1,2,3,4-tetrahydroquinolin-8-yl)thieno[3,2-b]pyridin-2-yl)methyl)hexahydro-1H-4,7-methanoisoindole-1,3(2H)-dione] was tested. Which pIC50 did it give?
Answer: The pIC50 was 7.00 to 8.00.

Question: How did the pIC50 turn out when `O=C1CCC(=O)N1Cc1cc2nccc(-c3cc(Cl)cc4c3N([C@@H]3CNC5(CCC5)C3)CCC4)c2s1` (single isomer, unassigned) [Example 139b] was run?
Answer: Its pIC50 is greater than 8.00.

Question: How did the pIC50 turn out when `CC(C)(C)c1cnn(Cc2cc3nccc(-c4cc(C#N)cc5c4N([C@@H]4CN[C@@H](CO)C4)C[C@H]4C[C@@H]54)c3s2)c(=O)c1` (single isomer, unassigned) [Example 192a] was run?
Answer: The pIC50 was greater than 8.00.

Question: With `O=C1CCC(=O)N1Cc1cc2nccc(-c3cc(Cl)cc4c3N(c3cn[nH]c3)C(=O)CC4)c2s1` [Example 228, 1-((7-(6-chloro-2-oxo-1-(1H-pyrazol-4-yl)-1,2,3,4-tetrahydroquinolin-8-yl)thieno[3,2-b]pyridin-2-yl)methyl)pyrrolidine-2,5-dione] as the molecule, how does the pIC50 read?
Answer: The pIC50 was 6.00 to 7.00.

Question: How did the pIC50 turn out when `O=c1ccn(C2CC2)c(=O)n1Cc1cc2nccc(-c3cc(Cl)cc4c3N([C@H]3CCNC3)CCC4)c2s1` [Example 72, (S)-3-((7-(6-chloro-1-(pyrrolidin-3-yl)-1,2,3,4-tetrahydroquinolin-8-yl)thieno[3,2-b]pyridin-2-yl)methyl)-1-cyclopropylpyrimidine-2,4(1H,3H)-dione] was run?
Answer: The pIC50 was greater than 8.00.

Question: How did the pIC50 turn out when `N#Cc1cc2c(c(-c3ccnc4cc(CN5C(=O)C6CC6C5=O)sc34)c1)N([C@H]1CNC3(CCCC3)C1)CCC2` (stereo partly drawn) [Example 178a, 8-(2-((2,4-dioxo-3-azabicyclo[3.1.0]hexan-3-yl)methyl)thieno[3,2-b]pyridin-7-yl)-1-((R)-1-azaspiro[4.4]nonan-3-yl)-1,2,3,4-tetrahydroquinoline-6-carbonitrile] was run?
Answer: Its pIC50 is 6.00 to 7.00.

Question: With `Cc1cnn(Cc2cc3nccc(-c4cc(C#N)cc5c4N([C@@H]4CNC(C)(C)C4)CCO5)c3s2)c(=O)c1` [Example 134, (S)-4-(5,5-dimethylpyrrolidin-3-yl)-5-(2-((4-methyl-6-oxopyridazin-1(6H)-yl)methyl)thieno[3,2-b]pyridin-7-yl)-3,4-dihydro-2H-benzo[b][1,4]oxazine-7-carbonitrile] as the molecule, how does the pIC50 read?
Answer: The pIC50 was greater than 8.00.

Question: `O=C1CCC(=O)N1Cc1cc2nccc(-c3cc(Cl)cc4c3N(C3CNC3)CCO4)c2s1` [Example 54, 1-[[7-[4-(azetidin-3-yl)-7-chloro-2,3-dihydro-1,4-benzoxazin-5-yl]thieno[3,2-b]pyridin-2-yl]methyl]pyrrolidine-2,5-dione] was tested. Which pIC50 did it give?
Answer: The pIC50 was 7.00 to 8.00.

Question: With `O=c1ccn(C2CC(F)(F)C2)c(=O)n1Cc1cc2nccc(-c3cc(Cl)cc4c3N([C@H]3CCNC3)CCC4)c2s1` [Example 75] as the molecule, how does the pIC50 read?
Answer: The pIC50 was greater than 8.00.

Question: `CC1(C)OC(=O)N(Cc2cc3nccc(-c4cc(Cl)cc5c4N([C@@H]4CNC6(CCC6)C4)CCC5)c3s2)C1=O` [Example 152, (S)-3-((7-(6-chloro-1-(5-azaspiro[3.4]octan-7-yl)-1,2,3,4-tetrahydroquinolin-8-yl)thieno[3,2-b]pyridin-2-yl)methyl)-5,5-dimethyloxazolidine-2,4-dione] was tested. Which pIC50 did it give?
Answer: Its pIC50 is 7.00 to 8.00.

Question: `O=C1CCC(=O)N1Cc1cc2nccc(-c3cc(Cl)cc4c3N(C3CO[C@@H](CO)C3)CCO4)c2s1` (single isomer, unassigned) [Example 227c] was tested. Which pIC50 did it give?
Answer: The pIC50 was less than 6.00.

Question: How did the pIC50 turn out when `COCCn1ccc(=O)n(Cc2cc3nccc(-c4cc(Cl)cc5c4N([C@@H]4CCNC4)CCC5)c3s2)c1=O` [Example 100, (R)-3-((7-(6-chloro-1-(pyrrolidin-3-yl)-1,2,3,4-tetrahydroquinolin-8-yl)thieno[3,2-b]pyridin-2-yl)methyl)-1-(2-methoxyethyl)pyrimidine-2,4(1H,3H)-dione] was run?
Answer: Its pIC50 is greater than 8.00.

Question: `CO[C@@H]1CNC[C@H]1N1CCCc2cc(Cl)cc(-c3ccnc4cc(CN5C(=O)CCC5=O)sc34)c21` (single isomer, unassigned) [Example 97b] was tested. Which pIC50 did it give?
Answer: The pIC50 was greater than 8.00.

Question: `O=C1C2CC2C(=O)N1Cc1cc2nccc(-c3cc(Cl)cc4c3N([C@@H]3CNC5(CCC5)C3)CCC4)c2s1` (stereo partly drawn) [Example 145, 3-((7-(6-chloro-1-((S)-5-azaspiro[3.4]octan-7-yl)-1,2,3,4-tetrahydroquinolin-8-yl)thieno[3,2-b]pyridin-2-yl)methyl)-3-azabicyclo[3.1.0]hexane-2,4-dione] was tested. Which pIC50 did it give?
Answer: The pIC50 was greater than 8.00.

Question: How did the pIC50 turn out when `N#Cc1cc(-c2ccnc3cc(Cn4c(=O)ccn(CC(F)F)c4=O)sc23)c2c(c1)[C@H]1C[C@H]1CN2[C@H]1CCNC1` [Example 117c, (1aR,7bS)-4-(2-((3-(2,2-difluoroethyl)-2,6-dioxo-3,6-dihydropyrimidin-1(2H)-yl)methyl)thieno[3,2-b]pyridin-7-yl)-3-((S)-pyrrolidin-3-yl)-1a,2,3,7b-tetrahydro-1H-cyclopropa[c]quinoline-6-carbonitrile] was run?
Answer: The pIC50 was 7.00 to 8.00.

Question: How did the pIC50 turn out when `CC1(C)C[C@H](N2CCCc3cc(C#N)cc(-c4ccnc5cc(CN6C(=O)C7CC7C6=O)sc45)c32)CN1` (stereo partly drawn) [Example 124, 1-((S)-5,5-dimethylpyrrolidin-3-yl)-8-(2-((2,4-dioxo-3-azabicyclo[3.1.0]hexan-3-yl)methyl)thieno[3,2-b]pyridin-7-yl)-1,2,3,4-tetrahydroquinoline-6-carbonitrile] was run?
Answer: Its pIC50 is greater than 8.00.

Question: `Cc1cc2c(c(-c3ccnc4cc(CN5C(=O)CCC5=O)sc34)c1)N(C1CNC1)CCC2` [Example 33, 1-[[7-[1-(azetidin-3-yl)-6-methyl-3,4-dihydro-2H-quinolin-8-yl]thieno[3,2-b]pyridin-2-yl]methyl]pyrrolidine-2,5-dione] was tested. Which pIC50 did it give?
Answer: The pIC50 was 7.00 to 8.00.

Question: `C[C@H]1C[C@@H](N2CCCc3cc(Cl)cc(-c4ccnc5cc(Cn6c(=O)ccn(CC(F)(F)F)c6=O)sc45)c32)CN1` (single isomer, unassigned) [Example 95a] was tested. Which pIC50 did it give?
Answer: Its pIC50 is greater than 8.00.

Question: With `O=C1CCC(=O)N1Cc1cc2nccc(-c3cc(Cl)cc4c3N(C3CN(CCO)C3)CCC4)c2s1` [Example 10, 1-[[7-[6-chloro-1-[1-(2-hydroxyethyl)azetidin-3-yl]-3,4-dihydro-2H-quinolin-8-yl]thieno[3,2-b]pyridin-2-yl]methyl]pyrrolidine-2,5-dione] as the molecule, how does the pIC50 read?
Answer: Its pIC50 is 7.00 to 8.00.

Question: How did the pIC50 turn out when `Cn1cc(Cc2cc3nccc(-c4cc(Cl)cc5c4N([C@@H]4CCNC4)CCC5)c3s2)nn1` (single isomer, unassigned) [Example 98] was run?
Answer: The pIC50 was 6.00 to 7.00.
